Data taken from patent publication US9957264B2 (Merck Sharp & Dohme Corp., priority 2013, dated 2018).

Key:
[1] = target: JAK1 (recombinant purified GST-tagged catalytic domain) (Homo sapiens (Human), UniProt P23458); assay: Jak Biochemical HTRF Assay (JAK1); settings: [ATP] 31.8 μM
Procedure, shortened: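 HTRF format, biotinylated peptide substrate; ATP-initiated reaction 120 min RT; EDTA quench + streptavidin-Dylight 650/Eu-anti-pY20 detection, 60 min RT; signal = 665/615 ratio ×10,000; normalized % inhibition, 4-parameter fit → IC50.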

[2] = target: JAK2 (recombinant purified GST-tagged catalytic domain) (Homo sapiens (Human), UniProt O60674); assay: Jak Biochemical HTRF Assay (JAK2); settings: [ATP] 8.5 μM
Chain of JAK2 (recombinant purified GST-tagged catalytic domain) (O60674 849-1124): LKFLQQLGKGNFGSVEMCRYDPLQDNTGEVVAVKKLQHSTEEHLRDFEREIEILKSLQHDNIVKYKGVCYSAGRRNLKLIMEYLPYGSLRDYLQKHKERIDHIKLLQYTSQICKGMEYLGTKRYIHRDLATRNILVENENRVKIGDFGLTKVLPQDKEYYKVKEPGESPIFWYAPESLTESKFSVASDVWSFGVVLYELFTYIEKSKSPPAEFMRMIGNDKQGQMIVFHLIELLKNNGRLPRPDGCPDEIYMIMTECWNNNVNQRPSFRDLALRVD

Chain of JAK1 (recombinant purified GST-tagged catalytic domain) (P23458 875-1153): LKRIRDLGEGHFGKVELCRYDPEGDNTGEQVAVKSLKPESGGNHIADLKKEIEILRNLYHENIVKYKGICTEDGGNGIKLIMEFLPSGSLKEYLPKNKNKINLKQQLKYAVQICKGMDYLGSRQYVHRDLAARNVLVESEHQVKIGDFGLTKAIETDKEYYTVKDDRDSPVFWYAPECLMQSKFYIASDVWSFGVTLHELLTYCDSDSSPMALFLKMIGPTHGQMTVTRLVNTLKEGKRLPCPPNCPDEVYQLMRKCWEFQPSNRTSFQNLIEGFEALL

SMILES	IC50 [1] [nM]	IC50 [2] [nM]
CC(C)(C)OC(=O)N1CCC(CC#N)(n2nc(Nc3ccc4c(c3)CN(CC(F)(F)F)S4(=O)=O)c3c(=O)[nH]ccc32)CC1 [Example 5-25, tert-butyl 4-(cyanomethyl)-4-(3-((1,1-dioxido-2-(2,2,2-trifluoroethyl)-2,3-dihydrobenzo[d]isothiazol-5-yl)amino)-4-oxo-4,5-dihydro-1H-pyrazolo[4,3-c]pyridin-1-yl)piperidine-1-carboxylate]	0.19	0.3
CC(C)(C)OC(=O)[C@@H]1CC[C@@](CC#N)(n2nc(Nc3ccc4c(c3)CN(C3CCCC3)C4=O)c3c(=O)[nH]ccc32)CO1 [Example 5-102, (2S,5S)-tert-butyl 5-(cyanomethyl)-5-(3-((2-cyclopentyl-1-oxoisoindolin-5-yl)amino)-4-oxo-4,5-dihydro-1H-pyrazolo[4,3-c]pyridin-1-yl)tetrahydro-2H-pyran-2-carboxylate]	0.1	0.2
Cc1cc(Nc2nn([C@@]3(CC#N)CCCC[C@H]3F)c3cc[nH]c(=O)c23)ccc1C(=O)N1CCSCC1 [Example 5-154, 2-((1R,2R)-2-fluoro-1-(3-((3-methyl-4-(thiomorpholine-4-carbonyl)phenyl)amino)-4-oxo-4,5-dihydro-1H-pyrazolo[4,3-c]pyridin-1-yl)cyclohexyl)acetonitrile]	0.09	0.08
CC(C)c1ccc(CN2CCC(CC#N)(n3nc(Nc4ccc(S(=O)(=O)N(C)C)cc4)c4c(=O)[nH]ccc43)CC2)cc1 [Example 8-4, 4-[(1-{4-(cyanomethyl)-1[4-(1-methylethyl)benzyl]piperidin-4-yl}-4-oxo-4,5-dihydro-1H-pyrazolo[4,3-c]pyridin-3-yl)amino]-N,N-dimethylbenzenesulfonamide]	6.9	33.1
CC(F)(F)C(=O)N1CCC(CC#N)(n2nc(Nc3ccc(S(=O)(=O)C(C)(C)C)cc3)c3c(=O)[nH]ccc32)CC1 [Example 5-59, 2-(4-(3-((4-(tert-butylsulfonyl)phenyl)amino)-4-oxo-4,5-dihydro-1H-pyrazolo[4,3-c]pyridin-1-yl)-1-(2,2-difluoro-propanoyl)piperidin-4-yl)acetonitrile]	0.1	0.15
CC(C)(C)N[C@H](c1ccc(Nc2nn([C@@]3(CC#N)CCOC[C@H]3F)c3cc[nH]c(=O)c23)cc1)C(F)(F)F (single isomer, unassigned) [Example 5-267, 2-((3S,4S or 3R,4R)-4-(3-((4-((R or S)-1-(tert-butylamino)-2,2,2-trifluoroethyl)phenyl)amino)-4-oxo-4,5-dihydro-1H-pyrazolo[4,3-c]pyridin-1-yl)-3-fluorotetrahydro-2H-pyran-4-yl)acetonitrile]	2.42	4.02
CCN(C)S(=O)(=O)c1ccc(Nc2nn([C@]3(CC#N)CC[C@@H](C(=O)OC(C)(C)C)OC3)c3cc[nH]c(=O)c23)cc1 [Example 5-92, (2S,5S)-tert-butyl 5-(cyanomethyl)-5-(3-((4-(N-ethyl-N-methylsulfamoyl)phenyl)amino)-4-oxo-4,5-dihydro-1H-pyrazolo[4,3-c]pyridin-1-yl)tetrahydro-2H-pyran-2-carboxylate]	0.09	0.13
CC(C)(C)OC(=O)N1CCC(CC#N)(n2nc(Nc3cc(Cn4nccn4)cc(Cn4nccn4)c3)c3c(=O)[nH]ccc32)CC1 [Example 5-63, tert-butyl 4-(3-(3,5-bis((2H-1,2,3-triazol-2-yl)methyl)phenylamino)-4-oxo-4,5-dihydropyrazolo[4,3-c]pyridin-1-yl)-4-(cyanomethyl)piperidine-1-carboxylate]	2.1	0.7
N#CC[C@]1(n2nc(Nc3ccc4c(c3)CN(C3CCN(CC(F)(F)F)CC3)S4(=O)=O)c3c(=O)[nH]ccc32)CCOC[C@H]1F (single isomer, unassigned) [Example 5-278, 2-((3S,4S or 3R,4R)-4-(3-((1,1-dioxido-2-(1-(2,2,2-trifluoroethyl)piperidin-4-yl)-2,3-dihydrobenzo[d]isothiazol-5-yl)amino)-4-oxo-4,5-dihydro-1H-pyrazolo[4,3-c]pyridin-1-yl)-3-fluorotetrahydro-2H-pyran-4-yl)acetonitrile]	0.2	2.65
CCNC(c1ccc(Nc2nn([C@]3(CC#N)CC[C@@H](C(=O)OC(C)(C)C)OC3)c3cc[nH]c(=O)c23)cc1)C(F)(F)F (single isomer, unassigned) [Example 5-208, (2S,5S)-tert-butyl 5-(cyanomethyl)-5-(3-((4-((R or S)-1-(ethylamino)-2,2,2-trifluoroethyl)phenyl)amino)-4-oxo-4,5-dihydro-1H-pyrazolo[4,3-c]pyridin-1-yl)tetrahydro-2H-pyran-2-carboxylate]	0.24	0.31
N#CCC1(n2nc(Nc3ccc4c(c3)CN(CC(F)(F)F)C4=O)c3c(=O)[nH]ccc32)CCCC1 [Example 5-138, 2-(1-(4-oxo-3-((1-oxo-2-(2,2,2-trifluoroethyl)isoindolin-5-yl)amino)-4,5-dihydro-1H-pyrazolo[4,3-c]pyridin-1-yl)cyclopentyl)acetonitrile]	0.31	1.51
CC(C)N1Cc2cc(Nc3nn(C4(CC#N)CCCC4)c4cc[nH]c(=O)c34)ccc2C1=O [Example 5-129, 2-(1-(3-((2-isopropyl-1-oxoisoindolin-5-yl)amino)-4-oxo-4,5-dihydro-1H-pyrazolo[4,3-c]pyridin-1-yl)cyclopentyl)acetonitrile]	2.07	3.54
Cc1cc(Nc2nn([C@]3(CC#N)CCCOC3)c3cc[nH]c(=O)c23)ccc1C(=O)N1CC[C@@H](F)C1 [Example 5-115, 2-((S)-3-(3-((4-((R)-3-fluoropyrrolidine-1-carbonyl)-3-methylphenyl)amino)-4-oxo-4,5-dihydro-1H-pyrazolo[4,3-c]pyridin-1-yl)tetrahydro-2H-pyran-3-yl)acetonitrile]	0.33	0.99
CC(C)(C)S(=O)(=O)c1ccc(Nc2nn(C3(CC#N)CCOCC3)c3cc[nH]c(=O)c23)cc1 [Example 5-252, 2-(4-(3-((4-(tert-butylsulfonyl)phenyl)amino)-4-oxo-4,5-dihydro-1H-pyrazolo[4,3-c]pyridin-1-yl)tetrahydro-2H-pyran-4-yl)acetonitrile]	0.34	0.84
CN(C)S(=O)(=O)c1ccc(Nc2nn(C3(CC#N)CCN(C(=O)c4ccccc4Cl)CC3)c3cc[nH]c(=O)c23)cc1 [Example 9-15, 4-[(1-{1-[(2-chlorophenyl)carbonyl]-4-(cyanomethyl)piperidin-4-yl}-4-oxo-4,5-dihydro-1H-pyrazolo[4,3-c]pyridin-3-yl)amino]-N,N-dimethylbenzenesulfonamide]	0.81	8.38

Further lines, results first:

IC50 [1] [nM]	IC50 [2] [nM]	SMILES
0.13	0.19	Cc1cc(Nc2nn([C@]3(CC#N)CC[C@@H](C(=O)OC(C)(C)C)OC3)c3cc[nH]c(=O)c23)ccc1C(=O)N1CCOCC1 [Example 20-5, (2S,5S)-tert-butyl 5-(cyanomethyl)-5-(3-((3-methyl-4-(morpholine-4-carbonyl)phenyl)amino)-4-oxo-4,5-dihydro-1H-pyrazolo[4,3-c]pyridin-1-yl)tetrahydro-2H-pyran-2-carboxylate]
4.14	84.6	N#CCC1(n2nc(Nc3ccc(C(F)(F)F)cc3)c3c(=O)[nH]ccc32)CCC(O)CC1 (stereo not drawn) [Example 18-5, (cis and trans) 2-(4-hydroxy-1-(4-oxo-3-((4-(trifluoromethyl)phenyl)amino)-4,5-dihydro-1H-pyrazolo[4,3-c]pyridin-1-yl)cyclohexyl)acetonitrile]
0.41	0.9	CO[C@H](c1ccc(Nc2nn([C@]3(CC#N)CC[C@@H](C(=O)OC(C)(C)C)OC3)c3cc[nH]c(=O)c23)cc1)C(F)(F)F (single isomer, unassigned) [Example 21-7, (2S,5S)-tert-butyl 5-(cyanomethyl)-5-(4-oxo-3-((4-((R or S)-2,2,2-trifluoro-1-methoxyethyl)phenyl)amino)-4,5-dihydro-1H-pyrazolo[4,3-c]pyridin-1-yl)tetrahydro-2H-pyran-2-carboxylate]
0.09	1.75	N#CC[C@]1(n2nc(Nc3ccc(Cl)cc3)c3c(=O)[nH]ccc32)CC[C@H](N2CC(F)C2)CC1 [Example 18-6, Trans 2-(1-(3-((4-chlorophenyl)amino)-4-oxo-4,5-dihydro-1H-pyrazolo[4,3-c]pyridin-1-yl)-4-(3-fluoroazetidin-1-yl)cyclohexyl)acetonitrile]
0.31	1.09	CSCCOC(=O)N1CCC(CC#N)(n2nc(Nc3ccc(S(=O)(=O)N(C)C)cc3)c3c(=O)[nH]ccc32)CC1 [Example 11-3, 2-(methylthio)ethyl 4-(cyanomethyl)-4-(3-((4-(N,N-dimethylsulfamoyl)phenyl)amino)-4-oxo-4,5-dihydro-1H-pyrazolo[4,3-c]pyridin-1-yl)piperidine-1-carboxylate]
120	1100	N#CC[C@]1(n2nc(Nc3ccc(OC(F)(F)F)cc3)c3c(=O)[nH]ccc32)CC[C@@H](Nc2ccccc2)CC1 [Example 18-17, Cis 2-(1-(4-oxo-3-((4-(trifluoromethoxy)phenyl)amino)-4,5-dihydro-1H-pyrazolo[4,3-c]pyridin-1-yl)-4-(phenylamino)cyclohexyl)acetonitrile]
20.5	> 1500	N#CC[C@]1(n2nc(Nc3ccc(Cl)c(F)c3)c3c(=O)[nH]ccc32)CC[C@@H](NC2CCCCC2)CC1 [Example 18-22, Cis 2-(1-(3-((4-chloro-3-fluorophenyl)amino)-4-oxo-4,5-dihydro-1H-pyrazolo[4,3-c]pyridin-1-yl)-4-(cyclohexylamino)cyclohexyl)acetonitrile]
